According to US10174024B2, “5H-pyrido[3,2-B]indole compounds as anticancer agents” (BRISTOL-MYERS SQUIBB COMPANY, priority 2015, dated 2019):

Target: BRD4 (Homo sapiens, UniProt O60885)
Test: Time Resolved Fluorescence Resonance Energy Transfer (TR-FRET) binding assay, FRET BRD4
Settings: one of the FRET assays described (BRD4 bromodomain construct not specified); read-out: FRET BRD4 IC50

Molecule | IC50
[2H]C([2H])([2H])c1nnn(C)c1-c1cnc2c3c(N4CCCS4(=O)=O)ccc(S(C)(=O)=O)c3n([C@H](c3ccccc3F)C3CCOCC3)c2c1 [Example 34, 2-{5-[(S)-(2-Fluorophenyl)(oxan-4-yl)methyl]-6-methanesulfonyl-3-[4-(^2H3)methyl-1-methyl-1H-1,2,3-triazol-5-yl]-5H-pyrido[3,2-b]indol-9-yl}-1λ^6,2-thiazolidine-1,1-dione] | < 1 nM
Cc1nnn(C)c1-c1cnc2c3ccc(N4CCC(F)(F)CC4)cc3n(C(c3ccccc3)C3CCC(F)(F)CC3)c2c1 (single isomer, unassigned) [Example 75, 1-{5-[(4,4-Difluorocyclohexyl)(phenyl)methyl]-3-(dimethyl-1H-1,2,3-triazol-5-yl)-5H-pyrido[3,2-b]indol-7-yl}-4,4-difluoropiperidine] | < 5 nM
[2H]C([2H])([2H])c1nnn(C)c1-c1cnc2c3ccc(N4CCS(=O)(=O)CC4)cc3n([C@H](c3ccccc3)C3CCOCC3)c2c1 [Example 45, 4-{3-[4-(^2H3)Methyl-1-methyl-1H-1,2,3-triazol-5-yl]-5-[(S)-oxan-4-yl(phenyl)methyl]-5H-pyrido[3,2-b]indol-7-yl}-1λ^6-thiomorpholine-1,1-dione] | < 5 nM
Cc1nnn(C)c1-c1cnc2c3cc(N4CCN(C5COC5)CC4)ccc3n([C@H](c3ccccc3)C3CCOCC3)c2c1 [Example 15, 1-[3-(Dimethyl-1H-1,2,3-triazol-5-yl)-5-[(S)-oxan-4-yl(phenyl)methyl]-5H-pyrido[3,2-b]indol-8-yl]-4-(oxetan-3-yl)piperazine] | < 5 nM
[2H]C([2H])([2H])c1nnn(C)c1-c1cnc2c3ccc(N4CCCC4=O)c(F)c3n([C@H](c3ccccc3)C3CCOCC3)c2c1 [Example 57, 1-{6-Fluoro-3-[4-(^2H3)methyl-1-methyl-1H-1,2,3-triazol-5-yl]-5-[(S)-oxan-4-yl(phenyl)methyl]-5H-pyrido[3,2-b]indol-7-yl}pyrrolidin-2-one] | < 1 nM
Cc1nnn(C)c1-c1cnc2c3c(N4CCN(C(=O)OC(C)(C)C)CC4)ccc(S(C)(=O)=O)c3n([C@H](c3ccccc3)C3CCOCC3)c2c1 [Example 25, tert-Butyl 4-[3-(dimethyl-1H-1,2,3-triazol-5-yl)-6-methanesulfonyl-5-[(S)-oxan-4-yl(phenyl)methyl]-5H-pyrido[3,2-b]indol-9-yl]piperazine-1-carboxylate] | < 5 nM
Cc1nnn(C)c1-c1cnc2c3cc(N4C[C@@H](C)O[C@@H](C)C4)ccc3n(C(c3ccccc3)C3CCOCC3)c2c1 (stereo in doubt) [Example 3, (2R,6S)-4-[3-(Dimethyl-1H-1,2,3-triazol-5-yl)-5-[(R)-oxan-4-yl(phenyl)methyl]-5H-pyrido[3,2-b]indol-8-yl]-2,6-dimethylmorpholine] | < 5 nM
[2H]C([2H])([2H])c1nnn(C)c1-c1cnc2c3c(N4CCCS4(=O)=O)ccc(S(C)(=O)=O)c3n([C@]([2H])(c3ccccc3F)C3CCOCC3)c2c1 [Example 37, 2-{5-[(S)-(2-Fluorophenyl)(oxan-4-yl)(^2H)methyl]-6-methanesulfonyl-3-[4-(^2H3)methyl-1-methyl-1H-1,2,3-triazol-5-yl]-5H-pyrido[3,2-b]indol-9-yl}-1λ^6,2-thiazolidine-1,1-dione] | < 5 nM
[2H]C([2H])([2H])c1nnn(C)c1-c1cnc2c3ccc(N4CCN(S(C)(=O)=O)CC4)cc3n([C@H](c3ccccc3)C3CCOCC3)c2c1 [Example 46, 1-Methanesulfonyl-4-{3-[4-(^2H3)methyl-1-methyl-1H-1,2,3-triazol-5-yl]-5-[(S)-oxan-4-yl(phenyl)methyl]-5H-pyrido[3,2-b]indol-7-yl}piperazine] | < 1 nM
Cc1nnn(C)c1-c1cnc2c3ccc(N4CCC(C(F)(F)F)CC4)cc3n(C(c3ccccc3)C3CCC(F)(F)CC3)c2c1 (single isomer, unassigned) [Example 77, 1-{5-[(4,4-Difluorocyclohexyl)(phenyl)methyl]-3-(dimethyl-1H-1,2,3-triazol-5-yl)-5H-pyrido[3,2-b]indol-7-yl}-4-(trifluoromethyl)piperidine] | < 1 nM
4-{5-[(3-Fluoropyridin-2-yl)(oxan-4-yl)methyl]-3-[4-(^2H3)methyl-1-methyl-1H-1,2,3-triazol-5-yl]-5H-pyrido[3,2-b]indol-7-yl}-1λ^6,4-thiomorpholine-1,1-dione [Example 68] | < 5 nM
[2H]C([2H])([2H])c1nnn(C)c1-c1cnc2c3cc(N4CCS(=O)(=O)CC4)ccc3n([C@H](c3ccccc3F)C3CCOCC3)c2c1 [Example 41, 4-{5-[(S)-(2-Fluorophenyl)(oxan-4-yl)methyl]-3-[4-(^2H3)methyl-1-methyl-1H-1,2,3-triazol-5-yl]-5H-pyrido[3,2-b]indol-8-yl}-1λ^6-thiomorpholine-1,1-dione] | < 1500 nM
[2H]C([2H])([2H])c1nnn(C)c1-c1cnc2c3cc(N4CCS(=O)(=O)CC4)ccc3n([C@H](c3ccc(F)cc3)C3CCOCC3)c2c1 [Example 39, 4-{5-[(S)-(4-Fluorophenyl)(oxan-4-yl)methyl]-3-[4-(^2H3)methyl-1-methyl-1H-1,2,3-triazol-5-yl]-5H-pyrido[3,2-b]indol-8-yl}-1λ^6-thiomorpholine-1,1-dione] | < 5 nM
Cc1nnn(C)c1-c1cnc2c3c(N4CCNCC4)ccc(S(C)(=O)=O)c3n([C@H](c3ccccc3)C3CCOCC3)c2c1 [Example 21, 1-[3-(Dimethyl-1H-1,2,3-triazol-5-yl)-6-methanesulfonyl-5-[(S)-oxan-4-yl(phenyl)methyl]-5H-pyrido[3,2-b]indol-9-yl]piperazine] | < 5 nM
